Data set [1] in a line: acute toxicity (tolerance) i.p. in mice, Weil method. To be noted: mouse, in vivo, ip, Weil method (N = 5, K = 4). An excerpt:
The tolerance of the Acyl-carnitines of the formula (I), as well as their salts administered by intraperitoneal route was investigated in mice using the Weil Method (1).
LD50, mg kg^-1 i.p. in mice,
of some acyl derivatives of formula (1).
Weil method (N = 5, K = 4)

In data set [2] the test system is arrhythmia induced by Aconitine in mice. As to the kind of experiment: arrhythmia induced by Aconitine in mice. The format is in vivo. To be noted: for change in vivo at 150 mg/kg / change in vivo at 40 mg/kg: Mus musculus, iv; for antiarrhythmic activity (in words): Aconitine, mice. The procedure: The antiarrhythmic effect of the compounds was also investigated in mice according to the P. W. Nwangwu, T. Holcslow procedure (4). Using Aconitine (5 mg/ml) as arrhythmogenic agent, the changes in the cardiac rhythm of the animals were recorded and the onset time of initial arrhythmia and/or of ventricular tachycardia were used as End point.
Antiarrhythmic agents display an increase in the latency time of initial ECG change.
(4) P. W. Nvangvu, T. L. Holcslow, Arch. Int. Pharmacodyn. 229, 219 (1977)
on the arrhythmia induced by Aconitine (5 γ/ml) in mice.
% increase of the time to onset of initial cardiac arrythmia

Data set [3] concerns rat's ventricle strip. As to the kind of experiment: antiarrhythmic effect, isolated rat ventricle strip test. To be noted: for inhibition at 1 µM / activation at 1 µM: Rattus norvegicus, concentration 1·10^-6 M; for inhibition at 1 µM: decrease; for activation at 1 µM: increase; for antiarrhythmic properties (in words): isolated rat ventricle method. An excerpt:
(2) M. Libonati and G. Segre, Archivio Italiano di Scienze Farmacologiche. Serie XIII, Vol. X, pag. 3, (1960)
effect of some acyl derivatives (concentration 1 · 10^-6
of the formula (1) on the rat's ventricle strip test.
% variation versus basal value.

Data set [4] has as its system plasma cholesterol, triglycerides and lipoproteins in rat. As to the kind of experiment: plasma cholesterol, triglycerides and lipoproteins in rat treated with olive oil. Format: in vivo. To be noted: for Lipoproteins, VLDL / Lipoproteins, HDL / Lipoproteins, LDL / cholesterol / triglycerides: olive oil 15 ml kg^-1 orally, compound ip, mean ± SEM, N = 8; for Lipoproteins, VLDL: oil control 15.84 ± 1.53; for Lipoproteins, HDL: oil control 24.18 ± 2.15; for Lipoproteins, LDL: oil control 57.38 ± 2.25; for cholesterol: oil control 88.33 ± 2.96; for triglycerides: oil control 213.66 ± 28.68. The procedure:
In the rats the lipoproteic pattern altered due to an oil administration by gavage, was restored after a single treatment with d,l dipropyl ACAR; d,l ethyl exanoyl CAR; d,l 3 bromopropionyl CAR and d,l pyruvyl CAR.
The effect of some acyl derivatives of formula (I) on plasma cholesterol,
triglycerides and lipoproteins in rat
treated with olive oil, 15 ml kg^-1 orally. Mean Values ± SEM
Student "t" test .quadrature., Δ and indicate respectively a non
significant difference, a P ≤ 1% and 1%.

Data set [5] concerns rabbit hearts. Put plainly: cardiokinetic effect on isolated rabbit heart (Langendorff) after anoxia. To be noted: equal concentrations in perfusion fluid, Student's t test versus controls. The procedure:
The cardiokinetic effect on isolated heart was also investigated as follows. Rabbit hearts isolated by the Langendorff method were perfused with oxygenized ringer solution at 38.2° C. The isometric contractions, electrocardiogram and coronary flow were recorded using a "Battaglia-Rangoni" polygraph. By removing the oxygen from the perfusion fluid, metabolic damage was induced in the cardiac muscle, up to an 80% reduction in the cardiac contractile force.
Under these conditions of prolonged anoxia the aerobic glycolysis of the myocardium is slowed down, accompanied by the storage of acid catabolites due to both the accumulation of pyruvic acid and its conversion to lactic acid which cannot be utilized because of the depression of pyridine enzymes, such as LDH (lactodehydrogenase). This has repercussions on the anaerobic glycolysis affecting an ever increasing number of enzymes, accompanied by a progressive and increasingly critical exhaustion of the myocardium. Thus a whole series of cardiac muscle fatigue levels occurs which can be observed by the behavior of the examined parameters, namely the contractile force, coronary flow, heart rate and cardiac rhythm. As soon as the contractile force was reduced by 80%, the perfusion fluid was once again oxygenized either without adding other compounds (controls) or with the addition of the compounds under examination.
Table 2 below gives the percentage values of the contractile force of the heart, showing a positive inotropic effect, calculated after 10 minutes from the interruption of the anoxic period (myocardial restoration).
of some acyl derivatives of formula (I) on the contractile
force of rabbit's heart. (Details are given in the text)

Data set [6] has as its system F.F.A. plasma levels. As to the kind of experiment: plasma free fatty acids in 17-hrs fasted rats. The format is in vivo. To be noted: single i.p. 500 mg kg^-1, 17-hrs fasted rats. The procedure: In 17-hrs fasted rats the F.F.A. (fatty-free acids) splasms levels were reduced by a single i.p. administration with 500 mg kg^-s of d,l dipropyl ACAR; l dipropyl ACAR (ACAR=acetylcarnitine); d,l exanoyl CAR (CAR=carnitine) and d,l pyruvyl CAR.
The decrease, compared with untreated animals, was -35%, -29%, -41% and -65% respectively.

Setting [7] is: read-out: latency time increase % of controls, arrhythmias.
The mark [8] stands for this setting: read-out: latency time increase % of controls, tachycardia.
Where [9] appears, read: read-out: maximed frequency (- %), % variation versus basal value.
Setting [10] is: read-out: whole excitability (- %), % variation versus basal value.
Setting [11] is: read-out: refractory period (+ %), % variation versus basal value.
Where [12] appears, read: read-out: rheobase (+ %), % variation versus basal value.

Read-outs that look alike come from different tables or passages of the source.

Broadly, the LD50 is the dose at which mortality reaches 50%. The low end stands for greater toxicity, the high end for lower toxicity.

For the compound `C[N+](C)(C)CC(CC(=O)[O-])OC(=O)CCBr` (racemic) [d,l 3-Br--propionyl CAR], the LD50 in data set [1] came out at 950 mg/kg. In addition, in data set [2] (setting [7]), the change in vivo at 150 mg/kg turned out to be 20%. In addition, in data set [2] (setting [8]), the change in vivo at 150 mg/kg was found to be 10%. In addition, the inhibition at 1 µM in data set [3] (setting [9]) came to 17.3%. Moreover, the inhibition at 1 µM in data set [3] (setting [10]) was determined as 39.7%. For the same compound, in data set [3] (setting [11]), the activation at 1 µM was 40.2%. In addition, the activation at 1 µM in data set [3] (setting [12]) stood at 26.1%. Further, in data set [4], the “Lipoproteins, VLDL” value turned out to be 11.22 ± 1.22%; the “Lipoproteins, HDL” value was found to be 30.45 ± 2.87%; the “Lipoproteins, LDL” value is 51.26 ± 2.49%; the cholesterol was determined as 76.18 ± 3.02 mg/100 ml. Also, the triglycerides in data set [4] was determined as 123.48 ± 12.16 mg/100 ml. The “lipoproteic pattern altered due to oil administration (in words)” value (“lipoproteic pattern altered due” below) in data set [4] (rats, single treatment) is on record as “restored”.
With `C[N+](C)(C)CC(CC(=O)[O-])OC(=O)C=Cc1ccccc1` (racemic) [d,l cinnamoyl CAR], in data set [1], the LD50 stood at 1120 mg/kg. For the same compound, the change in vivo at 150 mg/kg in data set [2] (setting [7]) worked out at 20%; in data set [2] (setting [8]), 8%. For the same compound, the inhibition at 1 µM is 29.8% in data set [3] (setting [9]) and 75.3% in data set [3] (setting [10]). Further, the activation at 1 µM in data set [3] (setting [11]) came out at 40.1%; in data set [3] (setting [12]), 49.6%. For the same compound, the “positive inotropic effect (in words)” value in data set [5] is listed as “greater positive inotropic effect than that of the other compounds under examination”.
In the case of `CCCC(CCC)C(=O)OC(CC(=O)[O-])C[N+](C)(C)C` (racemic) [d,l dipropyl ACAR], the LD50 in data set [1] was 1700 mg/kg. In data set [2] (setting [7]), the change in vivo at 150 mg/kg was 65%. In data set [2] (setting [8]), the change in vivo at 150 mg/kg worked out at 55%. Further, the inhibition at 1 µM in data set [3] (setting [9]) was 23.2%. For the same compound, the inhibition at 1 µM in data set [3] (setting [10]) amounted to 50.6%. Moreover, the activation at 1 µM in data set [3] (setting [11]) is 34.3%. Also, the activation at 1 µM in data set [3] (setting [12]) is 24.2%. The “decrease of F.F.A. plasma levels compared with untreated animals” value (“decrease of F.F.A. plasma levels” for short) in data set [6] is -35%. For the same compound, in data set [4], the “Lipoproteins, VLDL” value amounted to 13.26 ± 2.03%; the “Lipoproteins, HDL” value is given as 28.13 ± 3.27%; the “Lipoproteins, LDL” value is on record as 50.12 ± 2.08%; the cholesterol came out at 75.15 ± 3.11 mg/100 ml. In data set [4], this compound registered a triglycerides of 121.50 ± 11.13 mg/100 ml. Moreover, the “lipoproteic pattern altered due” value in data set [4] (rats, single treatment) is “restored”.
`CC(=O)C(=O)OC(CC(=O)[O-])C[N+](C)(C)C` (racemic) [d,l pyruvyl CAR] gave an LD50 in data set [1] of 3900 mg/kg. For the same compound, the “antiarrhythmic activity (in words)” value in data set [2] is given as “markedly exhibited”. In data set [2] (setting [7]), the change in vivo at 40 mg/kg is 80%. Also, the change in vivo at 40 mg/kg in data set [2] (setting [8]) turned out to be 60%. Moreover, the inhibition at 1 µM in data set [3] (setting [9]) turned out to be 80.2%. In data set [3] (setting [10]), the inhibition at 1 µM is 95.5%. Also, in data set [3] (setting [11]), the activation at 1 µM was 50.2%. Further, in data set [3] (setting [12]), the activation at 1 µM stood at 48.2%. Further, in data set [3], the “antiarrhythmic properties (in words)” value is listed as “most clear out antiarrhythmic properties”. For the same compound, in data set [6], the “decrease of F.F.A. plasma levels” value is reported as -65%. In data set [4], the “Lipoproteins, VLDL” value stood at 10.15 ± 1.03%; the “Lipoproteins, HDL” value came to 33.26 ± 2.17%; the “Lipoproteins, LDL” value was 50.15 ± 2.33%; the cholesterol is given as 70.26 ± 2.74 mg/100 ml. The triglycerides in data set [4] turned out to be 85.14 ± 7.22 mg/100 ml. For the same compound, in data set [4] (rats, single treatment), the “increase of HDL and decrease of LDL and VLDL (in words)” value is given as “most marked effect”; the “lipoproteic pattern altered due” value is “restored”; the “triglycerides and cholesterol plasma levels increased after oil (in words)” value was “active against the triglycerides and cholesterol plasma levels”. Moreover, the “positive inotropic effect (in words)” value in data set [5] is given as “greater positive inotropic effect than that of the other compounds under examination”.
On to `C[N+](C)(C)CC(CC(=O)[O-])OC(=O)CCBr` (stereo not drawn) [bromopropionyl], for which the “positive inotropic effect (in words)” value in data set [5] is given as “greater positive inotropic effect than that of the other compounds under examination”.
As to `CCCCCC(=O)OC(CC(=O)[O-])C[N+](C)(C)C` (stereo not drawn) [d,l exanoyl CAR], the “decrease of F.F.A. plasma levels” value in data set [6] is reported as -41%.
As for `CCCC(CCC)C(=O)OC(CC(=O)[O-])C[N+](C)(C)C` (stereo not drawn) [dipropyl acetyl], the “antiarrhythmic activity (in words)” value in data set [2] is listed as “markedly exhibited”. The “antiarrhythmic properties (in words)” value in data set [3] is reported as “most clear out antiarrhythmic properties”. Further, in data set [5], the “positive inotropic effect (in words)” value is “greater positive inotropic effect than that of the other compounds under examination”.
In data set [1], `CCCC(CCC)C(=O)O[C@H](CC(=O)[O-])C[N+](C)(C)C` [l dipropyl ACAR] gave an LD50 of 294 mg/kg. Moreover, the change in vivo at 40 mg/kg in data set [2] (setting [7]) was found to be 60%; in data set [2] (setting [8]) it was 40%. In addition, the inhibition at 1 µM in data set [3] (setting [9]) was 25.3%; in data set [3] (setting [10]) it was 58.2%. For the same compound, the activation at 1 µM in data set [3] (setting [11]) turned out to be 39.1%; in data set [3] (setting [12]), 55.1%. In addition, in data set [6], the “decrease of F.F.A. plasma levels” value is -29%.
Turning to `CC(C)(C)C(=O)OC(CC(=O)[O-])C[N+](C)(C)C` (stereo not drawn) [pivaloyl], the “antiarrhythmic properties (in words)” value in data set [3] is “most clear out antiarrhythmic properties”. Moreover, in data set [5], the “positive inotropic effect (in words)” value was “greater positive inotropic effect than that of the other compounds under examination”.
